For one data set, the target named is Melanocortin receptor 4 (Homo sapiens, UniProt P32245). In kind it is cell membranes, Membrane. Particulars: hek293. Further: in other assays of this panel Not Active means under 50% inhibition at 10 µM.
The nature of data set [1]: DRUGMATRIX: Serotonin (5-Hydroxytryptamine) 5-HT3 radioligand binding (ligand: [3H] GR-65630). It is filed as cell membranes, Membrane. Conditions: hek293; Not Active = under 50% inhibition at 10 µM.
The target in a further data set is T1, Calcitonin receptor (Homo sapiens, UniProt P30988). Further: in other assays of this panel Not Active means under 50% inhibition at 10 µM.
T1 sequence (P30988 whole entry): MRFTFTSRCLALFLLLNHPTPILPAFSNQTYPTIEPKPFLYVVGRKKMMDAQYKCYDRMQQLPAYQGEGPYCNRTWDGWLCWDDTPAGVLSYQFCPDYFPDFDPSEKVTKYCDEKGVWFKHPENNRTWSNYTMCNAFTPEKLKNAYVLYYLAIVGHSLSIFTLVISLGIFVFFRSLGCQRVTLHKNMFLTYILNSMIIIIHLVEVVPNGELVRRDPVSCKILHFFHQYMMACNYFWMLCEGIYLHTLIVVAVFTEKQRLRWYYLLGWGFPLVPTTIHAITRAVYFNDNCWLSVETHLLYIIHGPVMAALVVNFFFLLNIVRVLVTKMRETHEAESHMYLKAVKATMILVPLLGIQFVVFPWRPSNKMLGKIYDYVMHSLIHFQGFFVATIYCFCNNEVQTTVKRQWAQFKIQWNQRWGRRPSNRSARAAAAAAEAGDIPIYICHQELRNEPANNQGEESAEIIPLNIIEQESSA
In kind it is cell membranes, Membrane. Conditions: t47d.

Data set [2] deals with cGMP-specific 3',5'-cyclic phosphodiesterase (Homo sapiens, UniProt O76074). Kind of data set: DRUGMATRIX: Phosphodiesterase PDE5 enzyme inhibition (substrate: [3H]cGMP + cGMP). In kind it is tissue-based, Platelet. Conditions: platelet; Not Active = under 50% inhibition at 10 µM.
The target in the next data set is Vasopressin V1a receptor (Homo sapiens, UniProt P37288). It is filed as cell membranes, Membrane. Particulars: hek293. Further: in other assays of this panel Not Active means under 50% inhibition at 10 µM.
Vasopressin V1a receptor, sequence (P37288 whole entry): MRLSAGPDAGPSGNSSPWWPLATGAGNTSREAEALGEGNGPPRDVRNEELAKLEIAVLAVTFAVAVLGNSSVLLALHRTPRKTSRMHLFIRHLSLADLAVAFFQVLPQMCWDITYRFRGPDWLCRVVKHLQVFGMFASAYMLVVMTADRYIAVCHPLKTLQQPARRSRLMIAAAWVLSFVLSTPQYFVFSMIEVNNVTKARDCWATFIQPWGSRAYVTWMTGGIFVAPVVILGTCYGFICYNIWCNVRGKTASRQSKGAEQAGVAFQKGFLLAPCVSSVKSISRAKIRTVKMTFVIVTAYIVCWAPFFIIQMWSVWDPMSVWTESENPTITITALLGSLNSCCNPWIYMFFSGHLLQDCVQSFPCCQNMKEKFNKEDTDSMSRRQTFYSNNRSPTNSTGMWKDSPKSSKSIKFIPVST
For a further data set, the target named is Cytochrome P450 2D6 (Homo sapiens, UniProt P10635). Conditions: bti-tn-5b1-4. Further: in other assays of this panel Not Active means under 50% inhibition at 10 µM.
Cytochrome P450 2D6, sequence (P10635 whole entry): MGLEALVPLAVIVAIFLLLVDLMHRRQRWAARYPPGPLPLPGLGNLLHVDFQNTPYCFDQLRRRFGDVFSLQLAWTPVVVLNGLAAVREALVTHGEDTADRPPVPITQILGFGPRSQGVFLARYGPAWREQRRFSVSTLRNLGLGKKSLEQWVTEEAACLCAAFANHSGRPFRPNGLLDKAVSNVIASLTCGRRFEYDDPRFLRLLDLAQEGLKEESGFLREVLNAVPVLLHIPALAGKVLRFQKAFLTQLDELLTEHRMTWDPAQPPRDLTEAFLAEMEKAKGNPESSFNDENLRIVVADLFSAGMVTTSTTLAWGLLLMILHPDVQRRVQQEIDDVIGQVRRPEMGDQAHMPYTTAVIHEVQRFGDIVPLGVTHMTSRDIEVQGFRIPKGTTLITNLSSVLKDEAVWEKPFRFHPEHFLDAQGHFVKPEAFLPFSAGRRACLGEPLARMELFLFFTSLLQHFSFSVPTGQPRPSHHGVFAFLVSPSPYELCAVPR
The target in data set [3] is T2, 5-hydroxytryptamine receptor 1A (Rattus norvegicus, UniProt P19327). Further: in other assays of this panel Not Active means under 50% inhibition at 10 µM.
T2 sequence (P19327 whole entry): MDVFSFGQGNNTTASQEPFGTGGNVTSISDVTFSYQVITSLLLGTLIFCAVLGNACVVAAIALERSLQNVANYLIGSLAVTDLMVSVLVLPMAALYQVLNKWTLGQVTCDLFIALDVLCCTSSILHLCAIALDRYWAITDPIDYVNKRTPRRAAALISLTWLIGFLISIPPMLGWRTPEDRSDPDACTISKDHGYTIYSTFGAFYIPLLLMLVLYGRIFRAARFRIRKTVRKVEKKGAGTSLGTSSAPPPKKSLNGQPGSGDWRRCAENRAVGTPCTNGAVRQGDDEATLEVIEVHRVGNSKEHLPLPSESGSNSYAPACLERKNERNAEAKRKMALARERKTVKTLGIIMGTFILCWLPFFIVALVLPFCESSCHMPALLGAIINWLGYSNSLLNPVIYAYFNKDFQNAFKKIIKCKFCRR
In kind it is cell membranes, CHO-K1, Membrane. Particulars: for Ki: read-out: Ki.

In data set [4] the target is Tyrosine-protein kinase Lck (Homo sapiens, UniProt P06239). The experiment in a line: DRUGMATRIX: Protein Tyrosine Kinase, LCK enzyme inhibition (substrate: Poly(Glu:Tyr)). In kind it is cell-based, Insect cells. Conditions: Not Active = under 50% inhibition at 10 µM.
Tyrosine-protein kinase Lck, sequence (P06239 whole entry): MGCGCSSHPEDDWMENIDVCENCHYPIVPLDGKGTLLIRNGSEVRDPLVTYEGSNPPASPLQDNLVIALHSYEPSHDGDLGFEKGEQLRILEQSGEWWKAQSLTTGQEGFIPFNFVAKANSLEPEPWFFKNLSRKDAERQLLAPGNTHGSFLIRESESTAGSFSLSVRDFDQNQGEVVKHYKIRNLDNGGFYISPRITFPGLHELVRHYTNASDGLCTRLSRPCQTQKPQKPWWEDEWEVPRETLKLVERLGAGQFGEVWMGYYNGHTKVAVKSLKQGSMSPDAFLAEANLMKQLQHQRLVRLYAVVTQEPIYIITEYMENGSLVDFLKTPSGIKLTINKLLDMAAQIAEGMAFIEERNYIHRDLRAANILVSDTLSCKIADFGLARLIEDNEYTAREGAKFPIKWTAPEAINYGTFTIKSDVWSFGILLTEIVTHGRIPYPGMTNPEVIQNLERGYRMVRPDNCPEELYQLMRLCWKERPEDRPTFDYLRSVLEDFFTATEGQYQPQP

For orientation: IC50 means the concentration that inhibits the measured activity by half. The term Ki denotes the equilibrium dissociation constant of an inhibitor or competing ligand from its target.

Melanocortin receptor 4, sequence (P32245 whole entry): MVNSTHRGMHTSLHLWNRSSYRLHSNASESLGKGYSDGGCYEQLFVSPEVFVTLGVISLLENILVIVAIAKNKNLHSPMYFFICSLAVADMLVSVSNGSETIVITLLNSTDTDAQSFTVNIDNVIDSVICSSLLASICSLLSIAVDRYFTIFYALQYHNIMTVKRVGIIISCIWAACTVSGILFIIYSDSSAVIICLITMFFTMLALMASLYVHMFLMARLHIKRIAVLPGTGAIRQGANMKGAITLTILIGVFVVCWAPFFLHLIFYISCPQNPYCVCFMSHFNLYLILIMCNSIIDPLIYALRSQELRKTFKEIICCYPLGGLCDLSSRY

With `CC1(C)S[C@@H]2[C@H](NC(=O)[C@H](NC(=O)N3CCNC3=O)c3ccccc3)C(=O)N2[C@H]1C(=O)O` [AZLOCILLIN], the IC50 result (against Melanocortin receptor 4; in data set [1]; on Calcitonin receptor; in data set [2]; at Vasopressin V1a receptor; against Cytochrome P450 2D6) was “Not Active” each time. Moreover, the IC50 result in data set [3] (cho-k1) and in data set [4] (insect cells) was “Not Active” in each case. The Ki result (in data set [1]; on Cytochrome P450 2D6) was “Not Active” throughout.
`CCOC(=O)c1ccc(N)cc1` [BENZOCAINE]: the IC50 entry (at Melanocortin receptor 4; in data set [1]; at Calcitonin receptor; in data set [2]; against Vasopressin V1a receptor; against Cytochrome P450 2D6) was “Not Active” in each case. For the same compound, the IC50 entry in data set [3] (cho-k1) and in data set [4] (insect cells) was “Not Active” throughout. Besides, the Ki result (in data set [1]; at Cytochrome P450 2D6) was “Not Active” in each case.
Regarding `CC(C)(Oc1ccc(CCNC(=O)c2ccc(Cl)cc2)cc1)C(=O)O` [BEZAFIBRATE], the IC50 result (against Melanocortin receptor 4; in data set [1]; at Calcitonin receptor; in data set [2]; against Vasopressin V1a receptor; against Cytochrome P450 2D6) was “Not Active” in each case. Also, the IC50 result in data set [3] (cho-k1) and in data set [4] (insect cells) was “Not Active” each time. Also, the Ki result (in data set [1]; on Cytochrome P450 2D6) was “Not Active” each time.
Turning to `CCCC[C@@H](CC)COC(=O)c1ccccc1C(=O)OC[C@@H](CC)CCCC` [BIS(2-ETHYLHEXYL)PHTHALATE], the IC50 entry (on Melanocortin receptor 4; in data set [1]; at Calcitonin receptor; in data set [2]; against Vasopressin V1a receptor; against Cytochrome P450 2D6) was “Not Active” in each case. Further, the IC50 entry in data set [3] (cho-k1) and in data set [4] (insect cells) was “Not Active” throughout. Also, the Ki entry (in data set [1]; at Cytochrome P450 2D6) was “Not Active” in each case.
Turning to `Oc1c(Cl)cc(Cl)cc1Sc1cc(Cl)cc(Cl)c1O` [BITHIONOL], the IC50 result (against Melanocortin receptor 4; in data set [1]; on Calcitonin receptor; in data set [2]; at Vasopressin V1a receptor; against Cytochrome P450 2D6) was “Not Active” each time. For the same compound, the results for the IC50 in data set [3] (read-out: IC50) and in data set [4] (read-out: IC50) were 5510 nM and 2260 nM, respectively. For the same compound, the inhibition constant Ki entry was “Not Active” in data set [1], “Not Active” on Cytochrome P450 2D6 and 3150 nM in data set [3].
`O=C1CCc2cc(OCCCCc3nnnn3C3CCCCC3)ccc2N1` [CILOSTAZOL]: the IC50 result (against Melanocortin receptor 4; in data set [1]; at Calcitonin receptor; in data set [2]; against Vasopressin V1a receptor; on Cytochrome P450 2D6) was “Not Active” throughout. Besides, the IC50 entry in data set [3] (cho-k1) and in data set [4] (insect cells) was “Not Active” throughout. In addition, the Ki result (in data set [1]; at Cytochrome P450 2D6) was “Not Active” each time.
Regarding `CN(C)CCCC1(c2ccc(F)cc2)OCc2cc(C#N)ccc21` (configuration not stated) [CITALOPRAM], the IC50 result (against Melanocortin receptor 4; in data set [1]; at Calcitonin receptor; in data set [2]; at Vasopressin V1a receptor; on Cytochrome P450 2D6) was “Not Active” throughout. The IC50 entry in data set [3] (cho-k1) and in data set [4] (insect cells) was “Not Active” throughout. In addition, the Ki entry (in data set [1]; on Cytochrome P450 2D6) was “Not Active” throughout.
For `COC(=O)[C@H](c1ccccc1Cl)N1CCc2sccc2C1` [CLOPIDOGREL], the IC50 entry (on Melanocortin receptor 4; in data set [1]; at Calcitonin receptor; in data set [2]; at Vasopressin V1a receptor; against Cytochrome P450 2D6) was “Not Active” each time. Also, the half-maximal inhibitory concentration (IC50) result in data set [3] (cho-k1) and in data set [4] (insect cells) was “Not Active” each time. The inhibition constant (Ki) result (in data set [1]; on Cytochrome P450 2D6) was “Not Active” in each case.
With `C[C@]12CCC(=O)C=C1CC[C@@H]1[C@@H]2C(=O)C[C@@]2(C)[C@H]1CC[C@]2(O)C(=O)CO` [CORTISONE], the half-maximal inhibitory concentration (IC50) result (against Melanocortin receptor 4; in data set [1]; on Calcitonin receptor; in data set [2]; against Vasopressin V1a receptor; on Cytochrome P450 2D6) was “Not Active” in each case. In addition, the IC50 result in data set [3] (cho-k1) and in data set [4] (insect cells) was “Not Active” throughout. Also, the Ki result (in data set [1]; on Cytochrome P450 2D6) was “Not Active” throughout.
On to `Cc1ccccc1N1CCN(CCc2nnc3n2CCCC3)CC1` [DAPIPRAZOLE], for which the IC50 result (at Melanocortin receptor 4; in data set [1]; on Calcitonin receptor; in data set [2]; against Vasopressin V1a receptor; against Cytochrome P450 2D6) was “Not Active” in each case. In addition, the results for the IC50 in data set [3] (read-out: IC50) and in data set [4] (insect cells) were 2060 nM and “Not Active”, respectively. Moreover, the Ki result was “Not Active” in data set [1], “Not Active” on Cytochrome P450 2D6 and 1180 nM in data set [3].
Consider `CC1=Nc2ccc(Cl)cc2S(=O)(=O)N1` [DIAZOXIDE], for which the IC50 result (on Melanocortin receptor 4; in data set [1]; at Calcitonin receptor; in data set [2]; at Vasopressin V1a receptor; on Cytochrome P450 2D6) was “Not Active” throughout. Further, the concentration for half-maximal inhibition (IC50) entry in data set [3] (cho-k1) and in data set [4] (insect cells) was “Not Active” throughout. For the same compound, the Ki result (in data set [1]; at Cytochrome P450 2D6) was “Not Active” throughout.
Regarding `CC(=O)OCC(=O)[C@@]1(OC(C)=O)[C@@H](C)C[C@H]2[C@@H]3C[C@H](F)C4=CC(=O)C=C[C@]4(C)[C@@]3(F)[C@@H](O)C[C@@]21C` [DIFLORASONE DIACETATE], the IC50 entry (on Melanocortin receptor 4; in data set [1]; on Calcitonin receptor; in data set [2]; against Vasopressin V1a receptor; at Cytochrome P450 2D6) was “Not Active” each time. Moreover, the IC50 entry in data set [3] (cho-k1) and in data set [4] (insect cells) was “Not Active” in each case. The Ki result (in data set [1]; on Cytochrome P450 2D6) was “Not Active” throughout.
For the compound `COc1ccc([C@@H]2Sc3ccccc3N(CCN(C)C)C(=O)[C@@H]2OC(C)=O)cc1` [DILTIAZEM], the IC50 result (on Melanocortin receptor 4; in data set [1]; on Calcitonin receptor; in data set [2]; against Vasopressin V1a receptor; against Cytochrome P450 2D6) was “Not Active” each time. Besides, the IC50 result in data set [3] (cho-k1) and in data set [4] (insect cells) was “Not Active” each time. The Ki result (in data set [1]; on Cytochrome P450 2D6) was “Not Active” in each case.
Regarding `C=C1CC[C@H](O)C/C1=C/C=C1\CCC[C@]2(C)[C@@H]([C@H](C)/C=C/[C@H](C)C(C)C)CC[C@@H]12` [ERGOCALCIFEROL], the IC50 result (against Melanocortin receptor 4; in data set [1]; on Calcitonin receptor; in data set [2]; at Vasopressin V1a receptor; against Cytochrome P450 2D6) was “Not Active” in each case. In addition, the IC50 result in data set [3] (cho-k1) and in data set [4] (insect cells) was “Not Active” each time. Further, the Ki entry (in data set [1]; on Cytochrome P450 2D6) was “Not Active” each time.

These data come from ChEMBL document CHEMBL1909046, “DrugMatrix in vitro pharmacology data”.
